Measurements: patent US11919901B2 (Syndax Pharmaceuticals, Inc., priority 2021, dated 2024)

Columns and labels:
Menin-MLL = Menin-MLL (Homo sapiens (Human), UniProt O00255); test: Determination of binding constants (Ki) to Menin-MLL (HTRF); conditions: HTRF, 0.25 nM H-FL-Menin, 3.2 nM FITC-MLL-4-43, 24 hr incubation; for Ki: read-out: Menin-MLL Ki HTRF Assay: Ki
hERG = hERG (Homo sapiens (Human), UniProt Q12809); test: Patch clamp assay (hERG tail currents, whole-cell); type: cell-based; conditions: hERG transfected HEK 293 cells; for hERG % Remaining 30 μM: 30 μM compound; for hERG % Remaining 10 μM: 10 μM compound; for hERG % Remaining 100 μM: 100 μM compound
hERG, sequence (Q12809 whole entry): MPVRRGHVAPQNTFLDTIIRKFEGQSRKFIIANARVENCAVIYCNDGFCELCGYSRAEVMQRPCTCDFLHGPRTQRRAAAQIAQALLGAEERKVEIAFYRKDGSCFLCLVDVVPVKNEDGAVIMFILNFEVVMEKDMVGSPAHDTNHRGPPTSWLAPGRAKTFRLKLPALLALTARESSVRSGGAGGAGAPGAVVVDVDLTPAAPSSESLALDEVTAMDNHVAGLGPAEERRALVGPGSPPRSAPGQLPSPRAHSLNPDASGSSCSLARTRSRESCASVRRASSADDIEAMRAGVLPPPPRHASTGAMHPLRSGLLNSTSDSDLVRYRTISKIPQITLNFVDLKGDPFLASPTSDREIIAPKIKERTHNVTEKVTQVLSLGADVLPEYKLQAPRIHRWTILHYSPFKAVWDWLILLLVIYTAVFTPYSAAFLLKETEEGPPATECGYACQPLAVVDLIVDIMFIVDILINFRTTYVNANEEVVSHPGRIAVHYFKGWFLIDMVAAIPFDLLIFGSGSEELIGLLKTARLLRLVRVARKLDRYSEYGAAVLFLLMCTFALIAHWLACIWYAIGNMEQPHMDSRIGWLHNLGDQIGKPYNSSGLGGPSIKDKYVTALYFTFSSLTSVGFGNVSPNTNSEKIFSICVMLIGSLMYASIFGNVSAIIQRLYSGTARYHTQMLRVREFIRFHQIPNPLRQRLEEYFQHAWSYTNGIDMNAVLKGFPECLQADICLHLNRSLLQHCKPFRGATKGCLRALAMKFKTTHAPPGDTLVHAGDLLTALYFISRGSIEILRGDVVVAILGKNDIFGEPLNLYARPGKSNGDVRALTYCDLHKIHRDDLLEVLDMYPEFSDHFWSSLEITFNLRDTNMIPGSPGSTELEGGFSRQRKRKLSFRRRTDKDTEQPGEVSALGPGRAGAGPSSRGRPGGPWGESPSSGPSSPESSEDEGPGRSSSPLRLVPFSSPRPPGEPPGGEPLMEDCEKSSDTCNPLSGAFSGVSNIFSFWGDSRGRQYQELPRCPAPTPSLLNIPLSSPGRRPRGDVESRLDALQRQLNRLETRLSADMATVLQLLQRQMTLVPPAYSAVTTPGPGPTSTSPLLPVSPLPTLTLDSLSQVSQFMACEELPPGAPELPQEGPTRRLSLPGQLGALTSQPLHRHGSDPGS
Description: The 35 mm culture dishes upon which cells were seeded at a density allowing single cells to be recorded were placed on the dish holder of the microscope and continuously perfused (at approximately 1 mL/min) with the bath solution described in section 4.6. All solutions applied to cells including the pipette solution were maintained at room temperature (19° C. to 30° C.). After formation of a Gigaohm seal between the patch electrodes and individual hERG stably transfected HEK 293 cells (pipette resistance range: 2.0 MΩ2 to 7.0 MΩ; seal resistance range: >1GΩ) the cell membrane across the pipette tip was ruptured to assure electrical access to the cell interior (whole-cell patch-configuration). In case the quality of the seal was poor, the process of seal formation was repeated with a different cell and a new pipette. As soon as a stable seal could be established, hERG outward tail currents were measured upon depolarization of the cell membrane to +20 mV for 2s (activation of channels) from a holding potential of −80 mV and upon subsequent repolarization to −40 mV for 3 s. This voltage protocol (as shown below) was run at least 10 times at intervals of 10 s. If current density was judged to be too low for measurement, another cell was recorded.
During wash-in of the test item the voltage protocol indicated above was run continuously again at 10 s intervals until the steady-state level of block was reached.
The IC50 was determined by fitting the dose response curve with a 2-parameter logistic function (amax=100%).

Menin-MLL, sequence (O00255 whole entry): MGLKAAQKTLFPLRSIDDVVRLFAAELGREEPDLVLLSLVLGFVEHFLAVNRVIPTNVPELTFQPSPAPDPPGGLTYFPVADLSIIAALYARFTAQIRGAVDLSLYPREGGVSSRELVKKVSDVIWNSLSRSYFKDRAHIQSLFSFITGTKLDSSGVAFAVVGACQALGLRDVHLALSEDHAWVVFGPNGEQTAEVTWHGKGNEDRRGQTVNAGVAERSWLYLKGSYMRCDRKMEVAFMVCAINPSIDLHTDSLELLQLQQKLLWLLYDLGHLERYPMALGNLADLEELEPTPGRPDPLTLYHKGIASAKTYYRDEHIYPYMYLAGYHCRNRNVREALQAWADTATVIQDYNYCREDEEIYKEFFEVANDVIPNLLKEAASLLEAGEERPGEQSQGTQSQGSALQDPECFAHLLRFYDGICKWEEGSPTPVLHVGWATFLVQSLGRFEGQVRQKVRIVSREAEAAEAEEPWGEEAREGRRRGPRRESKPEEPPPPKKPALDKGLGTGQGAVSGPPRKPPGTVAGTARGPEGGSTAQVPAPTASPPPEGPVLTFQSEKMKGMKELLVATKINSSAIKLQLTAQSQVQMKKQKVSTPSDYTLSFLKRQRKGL

CC(C)N(CC(F)F)C(=O)c1cc(F)ccc1Oc1cncnc1N1CC2(CCN(C[C@@H]3CC[C@@H](NS(=O)(=O)NC4CC4)CO3)CC2)C1 [Compound 149, 2-((4-(7-(((2S,5R)-5-((N-Cyclopropylsulfamoyl)amino)tetrahydro-2H-pyran-2-yl)methyl)-2,7-diazaspiro[3.5]nonan-2-yl)pyrimidin-5-yl)oxy)-N-(2,2-difluoroethyl)-5-fluoro-N-isopropylbenzamide]
Ki (Menin-MLL): < 1 nM | hERG % Remaining 30 μM (hERG): +++ (“+++” means ≥66%)

CCNS(=O)(=O)N[C@@H]1CC[C@@H](CN2CCC3(CC2)CN(c2ncncc2Oc2ccc(F)cc2C(=O)N(CC(F)(F)F)C(C)C)C3)OC1 [Compound 153, 2-((4-(7-(((2S,5R)-5-((N-Ethylsulfamoyl)amino)tetrahydro-2H-pyran-2-yl)methyl)-2,7-diazaspiro[3.5]nonan-2-yl)pyrimidin-5-yl)oxy)-5-fluoro-N-isopropyl-N-(2,2,2-trifluoroethyl)benzamide]
Ki (Menin-MLL): < 1 nM | hERG % Remaining 30 μM (hERG): +++ (“+++” means ≥66%) | IC50 (hERG): ≥ 50000 nM

CNS(=O)(=O)N[C@@H]1CC[C@@H](CN2CCC3(CC2)CN(c2ncncc2Oc2ccc(F)cc2C(=O)N(C(C)C)C2CC(F)(F)C2)C3)OC1 [Compound 154]
Ki (Menin-MLL): < 1 nM | hERG % Remaining 10 μM (hERG): +++ (“+++” means ≥66%) | hERG % Remaining 30 μM (hERG): ++ (“++” means ≥33% and <66%)

CCNS(=O)(=O)N[C@@H]1CC[C@@H](CN2CCC3(CC2)CN(c2ncncc2Oc2ccc(F)cc2C(=O)N(C(C)C)C2CC(F)(F)C2)C3)OC1 [Compound 155, N-(3,3-Difluorocyclobutyl)-2-((4-(7-(((2S,5R)-5-((N-ethylsulfamoyl)amino)tetrahydro-2H-pyran-2-yl)methyl)-2,7-diazaspiro[3.5]nonan-2-yl)pyrimidin-5-yl)oxy)-5-fluoro-N-isopropylbenzamide]
Ki (Menin-MLL): < 1 nM | hERG % Remaining 10 μM (hERG): +++ (“+++” means ≥66%) | hERG % Remaining 30 μM (hERG): ++ (“++” means ≥33% and <66%)

CC(C)N(C(=O)c1cc(F)ccc1Oc1cncnc1N1CC2(CCN(C[C@@H]3CC[C@@H](NS(=O)(=O)c4cnn(C)c4)CO3)CC2)C1)C1CC(F)(F)C1 [Compound 156, N-(3,3-Difluorocyclobutyl)-5-fluoro-N-isopropyl-2-((4-(7-(((2S,5R)-5-((1-methyl-1H-pyrazole)-4-sulfonamido)tetrahydro-2H-pyran-2-yl)methyl)-2,7-diazaspiro[3.5]nonan-2-yl)pyrimidin-5-yl)oxy)benzamide]
Ki (Menin-MLL): < 1 nM | hERG % Remaining 30 μM (hERG): +++ (“+++” means ≥66%)

C[C@@H]1COC[C@@H](C)N1C(=O)c1cc(F)ccc1Oc1cncnc1N1CC2(CCN(C[C@@H]3CC[C@@H](NS(=O)(=O)NCC4CC4)CO3)CC2)C1 [Compound 158, (Cyclopropylmethyl)({[(3R,6S)-6-{[2-(5-{2-[(3R,5R)-3,5-dimethylmorpholine-4-carbonyl]-4-fluorophenoxy}pyrimidin-4-yl)-2,7-diazaspiro[3.5]nonan-7-yl]methyl}oxan-3-yl]sulfamoyl})amine]
Ki (Menin-MLL): < 1 nM | hERG % Remaining 30 μM (hERG): +++ (“+++” means ≥66%)

C[C@@H]1COC[C@H](C)N1C(=O)c1cc(F)ccc1Oc1cncnc1N1CC2(CCN(C[C@@H]3CC[C@@H](NS(=O)(=O)N4CCC4)CO3)CC2)C1 [Compound 161, N-((3R,6S)-6-((2-(5-(2-((3R,5S)-3,5-Dimethylmorpholine-4-carbonyl)-4-fluorophenoxy)pyrimidin-4-yl)-2,7-diazaspiro[3.5]nonan-7-yl)methyl)tetrahydro-2H-pyran-3-yl)azetidine-1-sulfonamide]
Ki (Menin-MLL): < 1 nM | hERG % Remaining 30 μM (hERG): +++ (“+++” means ≥66%)

CC(C)N(C(=O)c1cc(F)ccc1Oc1cncnc1N1CC2(CCN(C[C@@H]3CC[C@@H](NS(=O)(=O)C4CC4)CO3)CC2)C1)[C@@H]1CCOC1 [Compound 164, 2-((4-(7-(((2S,5R)-5-(Cyclopropanesulfonamido)tetrahydro-2H-pyran-2-yl)methyl)-2,7-diazaspiro[3.5]nonan-2-yl)pyrimidin-5-yl)oxy)-5-fluoro-N-isopropyl-N-((R)-tetrahydrofuran-3-yl)benzamide]
EC50 (Menin-MLL): < 50 nM | Ki (Menin-MLL): < 1 nM | hERG % Remaining 10 μM (hERG): +++ (“+++” means ≥66%) | hERG % Remaining 30 μM (hERG): +++ (“+++” means ≥66%)

CCN(CC)S(=O)(=O)N[C@@H]1CC[C@@H](CN2CCC3(CC2)CN(c2ncncc2Oc2ccc(F)cc2C(=O)N(C(C)C)[C@@H]2CCOC2)C3)OC1 [Compound 165, 2-((4-(7-(((2S,5R)-5-((N,N-Diethylsulfamoyl)amino)tetrahydro-2H-pyran-2-yl)methyl)-2,7-diazaspiro[3.5]nonan-2-yl)pyrimidin-5-yl)oxy)-5-fluoro-N-isopropyl-N-((R)-tetrahydrofuran-3-yl)benzamide]
Ki (Menin-MLL): < 1 nM | hERG % Remaining 10 μM (hERG): +++ (“+++” means ≥66%) | hERG % Remaining 30 μM (hERG): ++ (“++” means ≥33% and <66%)

CC(C)N(C(=O)c1cc(F)ccc1Oc1cncnc1N1CC2(CCN(C[C@@H]3CC[C@@H](NS(=O)(=O)N(C)C)CO3)CC2)C1)[C@@H]1CCOC1 [Compound 167, 2-((4-(7-(((2S,5R)-5-((N,N-Dimethylsulfamoyl)amino)tetrahydro-2H-pyran-2-yl)methyl)-2,7-diazaspiro[3.5]nonan-2-yl)pyrimidin-5-yl)oxy)-5-fluoro-N-isopropyl-N-((R)-tetrahydrofuran-3-yl)benzamide]
Ki (Menin-MLL): < 1 nM | hERG % Remaining 30 μM (hERG): +++ (“+++” means ≥66%) | hERG % Remaining 100 μM (hERG): +++ (“+++” means ≥66%) | IC50 (hERG): ≥ 50000 nM

CCN(CC)S(=O)(=O)N[C@@H]1CC[C@@H](CN2CCC3(CC2)CN(c2ncncc2Oc2ccc(F)cc2C(=O)N(C(C)C)[C@H]2CCOC2)C3)OC1 [Compound 175, 2-((4-(7-(((2S,5R)-5-((N,N-Diethylsulfamoyl)amino)tetrahydro-2H-pyran-2-yl)methyl)-2,7-diazaspiro[3.5]nonan-2-yl)pyrimidin-5-yl)oxy)-5-fluoro-N-isopropyl-N-((S)-tetrahydrofuran-3-yl)benzamide]
Ki (Menin-MLL): < 1 nM | hERG % Remaining 10 μM (hERG): ++ (“++” means ≥33% and <66%) | hERG % Remaining 30 μM (hERG): + (“+” means <33%)

CC(C)N(C(=O)c1cc(F)ccc1Oc1cncnc1N1CC2(CCN(C[C@@H]3CC[C@@H](NS(=O)(=O)C4CC4)CO3)CC2)C1)[C@H]1CCOC1 [Compound 176, 2-((4-(7-(((2S,5R)-5-(Cyclopropanesulfonamido)tetrahydro-2H-pyran-2-yl)methyl)-2,7-diazaspiro[3.5]nonan-2-yl)pyrimidin-5-yl)oxy)-5-fluoro-N-isopropyl-N-((S)-tetrahydrofuran-3-yl)benzamide]
Ki (Menin-MLL): < 1 nM | hERG % Remaining 10 μM (hERG): +++ (“+++” means ≥66%) | hERG % Remaining 30 μM (hERG): +++ (“+++” means ≥66%) | hERG % Remaining 100 μM (hERG): +++ (“+++” means ≥66%) | IC50 (hERG; human, HEK 293 cells stably transfected with hERG): ≥ 50000 nM

CC(C)N(C(=O)c1cc(F)ccc1Oc1cncnc1N1CC2(CCN(C[C@@H]3CC[C@@H](NS(=O)(=O)N(C)C)CO3)CC2)C1)[C@H]1CCOC1 [Compound 177, 2-((4-(7-(((2S,5R)-5-((N,N-Dimethylsulfamoyl)amino)tetrahydro-2H-pyran-2-yl)methyl)-2,7-diazaspiro[3.5]nonan-2-yl)pyrimidin-5-yl)oxy)-5-fluoro-N-isopropyl-N-((S)-tetrahydrofuran-3-yl)benzamide]
Ki (Menin-MLL): < 1 nM | hERG % Remaining 10 μM (hERG): +++ (“+++” means ≥66%) | hERG % Remaining 30 μM (hERG): +++ (“+++” means ≥66%)

CC(C)N(CC#N)C(=O)c1cc(F)ccc1Oc1cncnc1N1CC2(CCN(C[C@@H]3CC[C@@H](NS(=O)(=O)N(C)C)CO3)CC2)C1 [Compound 181, N-(Cyanomethyl)-2-((4-(7-(((2S,5R)-5-((N,N-dimethylsulfamoyl)amino)tetrahydro-2H-pyran-2-yl)methyl)-2,7-diazaspiro[3.5]nonan-2-yl)pyrimidin-5-yl)oxy)-5-fluoro-N-isopropylbenzamide]
Ki (Menin-MLL): < 1 nM | hERG % Remaining 30 μM (hERG): +++ (“+++” means ≥66%)

CC(C)N(CC#N)C(=O)c1cc(F)ccc1Oc1cncnc1N1CC2(CCN(C[C@@H]3CC[C@@H](NS(=O)(=O)N4CCC4)CO3)CC2)C1 [Compound 182, 2-((4-(7-(((2S,5R)-5-(Azetidine-1-sulfonamido)tetrahydro-2H-pyran-2-yl)methyl)-2,7-diazaspiro[3.5]nonan-2-yl)pyrimidin-5-yl)oxy)-N-(cyanomethyl)-5-fluoro-N-isopropylbenzamide]
Ki (Menin-MLL): < 1 nM | hERG % Remaining 30 μM (hERG): +++ (“+++” means ≥66%)

CC(C)N(CCC#N)C(=O)c1cc(F)ccc1Oc1cncnc1N1CC2(CCN(C[C@@H]3CC[C@@H](NS(=O)(=O)N(C)C)CO3)CC2)C1 [Compound 183, N-(2-Cyanoethyl)-2-((4-(7-(((2S,5R)-5-((N,N-dimethylsulfamoyl)amino)tetrahydro-2H-pyran-2-yl)methyl)-2,7-diazaspiro[3.5]nonan-2-yl)pyrimidin-5-yl)oxy)-5-fluoro-N-isopropylbenzamide]
Ki (Menin-MLL): < 1 nM | hERG % Remaining 30 μM (hERG): +++ (“+++” means ≥66%)

CC(C)N(CC(F)F)C(=O)c1cc(F)ccc1Oc1nncnc1N1CC2(CCN(C[C@@H]3CC[C@@H](NS(=O)(=O)N4CCC4)CO3)CC2)C1 [Compound 189, 2-((5-(7-(((2S,5R)-5-(Azetidine-1-sulfonamido)tetrahydro-2H-pyran-2-yl)methyl)-2,7-diazaspiro[3.5]nonan-2-yl)-1,2,4-triazin-6-yl)oxy)-N-(2,2-difluoroethyl)-5-fluoro-N-isopropylbenzamide]
Ki (Menin-MLL): < 1 nM | hERG % Remaining 30 μM (hERG): +++ (“+++” means ≥66%)

CC(C)N(C(=O)c1cc(F)ccc1Oc1nncnc1N1CC2(CCN(C[C@@H]3CC[C@@H](NS(=O)(=O)C4CC4)CO3)CC2)C1)C(C)C [Compound 196, 2-((5-(7-(((2S,5R)-5-(Cyclopropanesulfonamido)tetrahydro-2H-pyran-2-yl)methyl)-2,7-diazaspiro[3.5]nonan-2-yl)-1,2,4-triazin-6-yl)oxy)-5-fluoro-N,N-diisopropylbenzamide]
Ki (Menin-MLL): < 1 nM | hERG % Remaining 30 μM (hERG): +++ (“+++” means ≥66%)
